Literature values in US20170027865A1, “Dry Pharmaceutical Compositions for Topical Delivery of Oral Medications, Nasal Delivery and to Treat Ear Disorders” (CMPD LICENSING LLC, priority 2013, published 2017).

What was measured:
[1] = test system: Proteus mirabilis; settings: Gram: neg
[2] = test system: Streptococcus pyogenes; settings: Gram: pos
[3] = test system: Shigella boydii; settings: Gram: neg
[4] = test system: Corynebacterium jeikeium; settings: Gram: pos
[5] = test system: Bordetella pertussis; settings: Gram: neg
[6] = test system: Citrobacter diversus; settings: Gram: neg
[7] = test system: Enterobacter cloacae; settings: Gram: neg
[8] = test system: Vibrio cholerae; settings: Gram: neg
[9] = test system: Enterobacter aerogenes; settings: Gram: neg
[10] = test system: Salmonella typhi; settings: Gram: neg
[11] = test system: Providencia stuartii; settings: Gram: neg
[12] = test system: Acinetobacter baumannii; settings: Gram: neg
[13] = test system: Providencia rettgeri; settings: Gram: neg
[14] = test system: Staphylococcus aureus (MSSA); settings: Gram: pos
[15] = test system: Methicillin Resistant Staph aureus (MRSA); settings: Gram: pos
[16] = test system: Klebsiella oxytoca; settings: Gram: neg
[17] = test system: Pseudomonas aeruginosa; settings: Gram: neg
[18] = test system: Acinetobacter calcoaceticus; settings: Gram: neg
[19] = test system: Brucella species; settings: Brucella species; Gram: neg
[20] = test system: Escherichia coli; settings: Gram: neg
[21] = test system: Pseudomonas fluorescens; settings: Gram: neg
[22] = test system: Shigella dysenteriae; settings: Gram: neg
[23] = test system: Clostridium perfringens; settings: Clostridium perfringens; Gram: anaer
[24] = test system: Klebsiella (Calymmatobacterium) granulomatis; settings: Gram: neg
[25] = test system: Neisseria gonorrhoeae; settings: Gram: neg
[26] = test system: Shigella flexneri; settings: Gram: neg
[27] = test system: Klebsiella pneumoniae; settings: Gram: neg
[28] = test system: Proteus vulgaris; settings: Gram: neg
[29] = test system: Enterobacter sakazakii; settings: Gram: neg
[30] = test system: Morganella morganii; settings: Gram: neg
[31] = test system: Moraxella catarrhalis; settings: Gram: neg
[32] = test system: Corynebacterium urealyticum; settings: Gram: pos
[33] = test system: Campylobacter jejuni; settings: Gram: neg
[34] = test system: Serratia marcescens; settings: Gram: neg
[35] = test system: Francisella tularensis; settings: Francisella tularensis; Gram: neg
[36] = test system: Haemophilus ducreyi; settings: Gram: neg
[37] = test system: Haemophilus influenzae; settings: Gram: neg
[38] = test system: Legionella pneumophila; settings: Legionella pneumophila; Gram: neg
[39] = test system: Yersinia pestis; settings: Yersinia pestis; Gram: neg
[40] = test system: Bartonella bacilliformis; settings: Gram: neg
[41] = test system: Shigella sonnei; settings: Gram: neg
[42] = test system: Acinetobacter lwoffii; settings: Gram: neg
[43] = test system: Citrobacter freundii; settings: Gram: neg
[44] = test system: Rickettsiae; settings: Rickettsiae; Gram: neg
[45] = test system: Neisseria meningitidis; settings: Gram: neg
[46] = test system: Bacteroides fragilis; settings: Gram: anaer
[47] = test system: Haemophilus parainfluenzae; settings: Gram: neg
[48] = test system: Enterococcus faecium; settings: Gram: pos
[49] = test system: Chlamydia pneumoniae; settings: Gram: n/a
[50] = test system: Staphylococcus epidermidis; settings: Gram: pos
[51] = test system: Chlamydia psittaci; settings: Chlamydia psittaci; Gram: n/a
[52] = test system: Viridans group streptococci; settings: Gram: pos
[53] = test system: Enterococcus faecalis; settings: Gram: pos
[54] = test system: Diphtheroids; settings: Gram: pos
[55] = test system: Clostridium difficile; settings: Gram: anaer
[56] = test system: Mycoplasma pneumoniae; settings: Gram: n/a
[57] = test system: Streptococcus agalactiae; settings: Gram: pos
[58] = test system: Chlamydia trachomatis; settings: Gram: n/a
[59] = test system: Peptostreptococcus; settings: Gram: pos
[60] = test system: Streptococcus pneumoniae; settings: Gram: pos

For `C/C(=C\C(=O)OCCCCCCCCC(=O)O)C[C@@H]1OC[C@H](C[C@@H]2O[C@H]2[C@@H](C)[C@H](C)O)[C@@H](O)[C@H]1O` [Bactroban], the Expected coverage [1] is given as “no”, the Expected coverage [2] is given as “yes” and the Expected coverage [3] is given as “no”. For the same compound, the Expected coverage [4] was “no”, the Expected coverage [5] was “no” and the Expected coverage [6] was “no”. For the same compound, the Expected coverage [7] was “no”, the Expected coverage [8] was “no” and the Expected coverage [9] was “no”. The Expected coverage [10] was “no”, the Expected coverage [11] was “no” and the Expected coverage [12] was “no”. For the same compound, the Expected coverage [13] was “no”, the Expected coverage [14] was “yes” and the Expected coverage [15] was “yes”. The Expected coverage [16] was “no”, the Expected coverage [17] was “no” and the Expected coverage [18] was “no”. The Expected coverage [19] was “no”, the Expected coverage [20] was “no” and the Expected coverage [21] was “no”. For the same compound, the Expected coverage [22] was “no”, the Expected coverage [23] was “no” and the Expected coverage [24] was “no”. The Expected coverage [25] was “no”, the Expected coverage [26] was “no” and the Expected coverage [27] was “no”. For the same compound, the Expected coverage [28] was “no”, the Expected coverage [29] was “no” and the Expected coverage [30] was “no”. For the same compound, the Expected coverage [31] was “no”, the Expected coverage [32] was “no” and the Expected coverage [33] was “no”. For the same compound, the Expected coverage [34] was “no”, the Expected coverage [35] was “no” and the Expected coverage [36] was “no”. For the same compound, the Expected coverage [37] was “no”, the Expected coverage [38] was “no” and the Expected coverage [39] was “no”. For the same compound, the Expected coverage [40] was “no”, the Expected coverage [41] was “no” and the Expected coverage [42] was “no”. The Expected coverage [43] was “no”, the Expected coverage [44] was “no” and the Expected coverage [45] was “no”.

In the case of `O=C(O)c1cn(C2CC2)c2cc(N3CCNCC3)c(F)cc2c1=O` [Ciprofloxacin, ciprofloxacin], the Expected coverage [1] is given as “yes”, the Expected coverage [3] is given as “yes” and the Expected coverage [4] is given as “no”. For the same compound, the Expected coverage [46] was “no”, the Expected coverage [6] was “yes” and the Expected coverage [8] was “yes”. For the same compound, the Expected coverage [9] was “yes”, the Expected coverage [10] was “yes” and the Expected coverage [11] was “yes”. The Expected coverage [13] was “yes”, the Expected coverage [15] was “no” and the Expected coverage [16] was “yes”. For the same compound, the Expected coverage [17] was “yes”, the Expected coverage [20] was “yes” and the Expected coverage [21] was “yes”. For the same compound, the Expected coverage [47] was “yes”, the Expected coverage [22] was “yes” and the Expected coverage [25] was “yes”. For the same compound, the Expected coverage [26] was “yes”, the Expected coverage [27] was “yes” and the Expected coverage [28] was “yes”. For the same compound, the Expected coverage [30] was “yes”, the Expected coverage [31] was “yes” and the Expected coverage [33] was “yes”. For the same compound, the Expected coverage [34] was “yes”, the Expected coverage [35] was “yes” and the Expected coverage [48] was “no”. The Expected coverage [37] was “yes”, the Expected coverage [38] was “yes” and the Expected coverage [49] was “yes”. The Expected coverage [39] was “yes”, the Expected coverage [40] was “yes” and the Expected coverage [50] was “yes”. The Expected coverage [41] was “yes”, the Expected coverage [43] was “yes” and the Expected coverage [44] was “yes”. The Expected coverage [45] was “yes”.

For colistimethate, the Expected coverage [1] is listed as “no”, the Expected coverage [2] is listed as “no” and the Expected coverage [4] is listed as “no”. For the same compound, the Expected coverage [5] was “no”, the Expected coverage [46] was “no” and the Expected coverage [7] was “yes”. The Expected coverage [8] was “no”, the Expected coverage [9] was “yes” and the Expected coverage [11] was “no”. For the same compound, the Expected coverage [13] was “no”, the Expected coverage [51] was “no” and the Expected coverage [14] was “no”. The Expected coverage [15] was “no”, the Expected coverage [16] was “yes” and the Expected coverage [52] was “no”. The Expected coverage [53] was “no”, the Expected coverage [17] was “yes” and the Expected coverage [19] was “no”. The Expected coverage [20] was “yes”, the Expected coverage [54] was “no” and the Expected coverage [21] was “yes”. The Expected coverage [47] was “no”, the Expected coverage [24] was “yes” and the Expected coverage [25] was “no”. For the same compound, the Expected coverage [55] was “no”, the Expected coverage [27] was “yes” and the Expected coverage [56] was “no”. For the same compound, the Expected coverage [28] was “no”, the Expected coverage [29] was “yes” and the Expected coverage [31] was “no”. The Expected coverage [32] was “no”, the Expected coverage [57] was “no” and the Expected coverage [34] was “no”. The Expected coverage [48] was “no”, the Expected coverage [38] was “no” and the Expected coverage [49] was “no”. For the same compound, the Expected coverage [58] was “no”, the Expected coverage [59] was “no” and the Expected coverage [50] was “no”. The Expected coverage [60] was “no” and the Expected coverage [45] was “no”.
